Assay results reported in patent publication US20210238173A1, “MITOGEN-ACTIVATED PROTEIN KINASE KINASE 7 INHIBITORS” (Yeda Research and Development Co. Ltd., priority 2018, published 2021).
pEC50: −log10 of the molar value.

Experiments:
MAPK14 (p38 alpha) = MAPK14 (p38 alpha) (Homo sapiens, UniProt Q16539); experiment: Kinome selectivity screen MAPK14; format: biochemical; conditions: 1 μM compound
Experimental: (§1) Kinome Selectivity Screen:
(§2) Kinase selectivity was assessed using the Life Technologies SelectScreen Kinase Profiling Service in a custom panel of 76 kinases selected to provide broad representative coverage of all kinase families. Kinase activity assays employed either the Z′-LYTE or Adapta assay technologies with ATP concentrations at or near the KM, ATP for each kinase and a test compound concentration of 1 μM.

GRK4 = GRK4 (Homo sapiens, UniProt P32298); experiment: Kinome selectivity screen GRK4; format: biochemical; conditions: 1 μM compound
Experimental: as §1, §2

CSNK1G2 (CK1 gamma 2) = CSNK1G2 (CK1 gamma 2) (Homo sapiens, UniProt P78368); experiment: Kinome selectivity screen CSNK1G2; format: biochemical; conditions: 1 μM compound
Experimental: as §1, §2

AURKB (Aurora B) = AURKB (Aurora B) (Homo sapiens, UniProt Q96GD4); experiment: Kinome selectivity screen AURKB; format: biochemical; conditions: 1 μM compound
Experimental: as §1, §2

MAP3K8 (COT) = MAP3K8 (COT) (Homo sapiens, UniProt P41279); experiment: Kinome selectivity screen MAP3K8; format: biochemical; conditions: 1 μM compound
Experimental: as §1, §2

pATF2 in HEK293 cells = experiment: pATF2 inhibition in HEK293 cells; format: cell-based; conditions: Homo sapiens
Experimental: HEK293, Beas2B and 3T3 cells were plated 24 hours before procedure on 384 well clear bottom black flat plates (Corning) pre-coated with Fibronectin (Sigma) diluted in PBS to a concentration of 5 μg/ml 45 minutes prior to cells introduction. Cells were plated using Multidrop™ Combi reagent dispenser (Thermo Fisher Scientific). Compound, reagents and antibody dispensing as well as washes were performed with a CyBio liquid handler (Analytik). Cells were pre-incubated with a small molecule or up to 1% DMSO for 2 h before fixation. HEK293, 3T3 or Beas2B cells were treated with 0.6M/0.2M/0.2M D-Sorbitol/PBS (Sigma) for 20/40/40 min. respectively, before fixation. Media was removed and wells were immediately fixed with 150 μl per well of 3.7% formaldehyde/PBS fixing solution for 20 min. Formaldehyde was then aspired and cells were permeabilized with 150 μl of 0.5% Triton x-100/PBS solution for 10 min. After aspiration cells were washed with ice-cold methanol and stored at −20° C., for 10 min. Methanol was aspired and cells were blocked with 150 μl blocking buffer (LICOR) for 90 min. Primary antibody Phospho-SAPK/JNK T183/Y185 (CST; 9251S) was diluted 1:1000 in blocking buffer and was applied 50 μl per well, except control wells to which only blocking buffer was applied, O.N. (16 h) at 4° C. with mild shaking. […] Wells signals were analyzed with Odyssey software. […]
To rapidly assess the cellular activity (EC50) with full dose response curves of the MKK7 covalent inhibitors, according to some embodiments of the present invention, an in-cell western assay was adapted to a 384 well plate format over traditional western blot, and monitored phospho-JNK (pJNK) levels in response to osmotic shock. […] The compound's activity was assessed by pre-treating cells with either compound or DMSO for 2 hours, followed by Sorbitol stimulation. The response of pJNK, and its substrates, pc-Jun and pATF2, was measured, as well as pP38, which is a substrate of MKK4 but not MKK7, and pERK in HEK293 cells, and the results are presented in Table 5 below.

FRAP1 (mTOR) = FRAP1 (mTOR) (Homo sapiens, UniProt P42345); experiment: Kinome selectivity screen FRAP1; format: biochemical; conditions: 1 μM compound
Experimental: as §1, §2

MAP2K1 (MEK1) = MAP2K1 (MEK1) (Homo sapiens, UniProt Q02750); experiment: Kinome selectivity screen MAP2K1; format: biochemical; conditions: 1 μM compound
Experimental: as §1, §2

PKN1 (PRK1) = PKN1 (PRK1) (Homo sapiens, UniProt Q16512); experiment: Kinome selectivity screen PKN1; format: biochemical; conditions: 1 μM compound
Experimental: as §1, §2

PAK4 = PAK4 (Homo sapiens, UniProt O96013); experiment: Kinome selectivity screen PAK4; format: biochemical; conditions: 1 μM compound
Experimental: as §1, §2

LRRK2 FL = LRRK2 FL (Homo sapiens, UniProt Q5S007); experiment: Kinome selectivity screen LRRK2 FL; format: biochemical; conditions: 1 μM compound
Experimental: as §1, §2

LCK = LCK (Homo sapiens, UniProt P06239); experiment: Kinome selectivity screen LCK; format: biochemical; conditions: 1 μM compound
Experimental: as §1, §2

PDGFRB (PDGFR beta) = PDGFRB (PDGFR beta) (Homo sapiens, UniProt P09619); experiment: Kinome selectivity screen PDGFRB; format: biochemical; conditions: 1 μM compound
Experimental: as §1, §2

primary mouse B-cells = experiment: Primary B-cell activation (CD86+ FACS) in response to LPS; format: cell-based; conditions: Mus musculus, B-cell, 10 μM, 2 hours pre-incubation
Text: Compounds Block Activation of Primary Mouse B-Cells:
JNK is known to mediate activation of B-cells in response to lypopolysacharide (LPS) through the TLR4 signaling pathway as well as in response to B-cell receptor activation (stimulated e.g. with an anti-IgM antibody). Primary B-cells were isolated from the spleen of mice and assessed for their B-cell activation, via FACS analysis of CD86+ expression, in response to LPS in the presence or absence of the covalent MKK7 enzyme inhibitors presented herein, as well as a positive control JNK inhibitor, JNK-IN-8.
At 10 μM and 2 hours pre-incubation before stimulation, GO80 was able to inhibit 60% of the CD86+ response.

JNK activation = experiment: KTR reporter live cell imaging of JNK activation; format: cell-based; conditions: Homo sapiens; HEK293 cells; read-out: EC50 of test and control compounds
Text: As an orthogonal assay for the ICW we used a KTR reporter cell line for JNK activation via live cell imaging.

AURKA (Aurora A) = AURKA (Aurora A) (Homo sapiens, UniProt O14965); experiment: Kinome selectivity screen AURKA; format: biochemical; conditions: 1 μM compound

Chain of GRK4 (P32298 whole entry): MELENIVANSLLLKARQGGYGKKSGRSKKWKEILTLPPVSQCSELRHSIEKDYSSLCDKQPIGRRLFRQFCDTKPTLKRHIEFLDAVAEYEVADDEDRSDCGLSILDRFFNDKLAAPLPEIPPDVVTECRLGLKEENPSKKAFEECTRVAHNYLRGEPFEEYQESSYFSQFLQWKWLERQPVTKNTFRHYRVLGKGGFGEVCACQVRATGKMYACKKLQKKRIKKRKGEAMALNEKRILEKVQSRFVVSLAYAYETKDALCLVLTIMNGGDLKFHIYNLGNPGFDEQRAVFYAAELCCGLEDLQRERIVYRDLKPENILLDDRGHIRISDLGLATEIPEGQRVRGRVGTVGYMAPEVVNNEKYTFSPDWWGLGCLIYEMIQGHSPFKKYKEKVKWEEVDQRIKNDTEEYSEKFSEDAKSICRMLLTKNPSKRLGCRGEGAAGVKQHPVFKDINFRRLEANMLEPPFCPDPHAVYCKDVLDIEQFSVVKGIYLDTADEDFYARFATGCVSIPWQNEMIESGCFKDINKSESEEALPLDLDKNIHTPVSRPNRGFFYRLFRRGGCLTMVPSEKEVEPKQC
Chain of AURKB (Aurora B) (Q96GD4 whole entry): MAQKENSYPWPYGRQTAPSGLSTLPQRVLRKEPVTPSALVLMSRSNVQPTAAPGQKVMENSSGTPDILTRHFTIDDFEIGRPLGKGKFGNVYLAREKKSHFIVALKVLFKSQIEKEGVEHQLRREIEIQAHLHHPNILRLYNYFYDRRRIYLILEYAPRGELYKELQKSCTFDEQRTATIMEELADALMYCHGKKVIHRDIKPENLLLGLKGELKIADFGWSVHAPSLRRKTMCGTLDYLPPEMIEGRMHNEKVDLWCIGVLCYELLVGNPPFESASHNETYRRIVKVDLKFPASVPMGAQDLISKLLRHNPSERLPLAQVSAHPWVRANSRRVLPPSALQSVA
Chain of PKN1 (PRK1) (Q16512 whole entry): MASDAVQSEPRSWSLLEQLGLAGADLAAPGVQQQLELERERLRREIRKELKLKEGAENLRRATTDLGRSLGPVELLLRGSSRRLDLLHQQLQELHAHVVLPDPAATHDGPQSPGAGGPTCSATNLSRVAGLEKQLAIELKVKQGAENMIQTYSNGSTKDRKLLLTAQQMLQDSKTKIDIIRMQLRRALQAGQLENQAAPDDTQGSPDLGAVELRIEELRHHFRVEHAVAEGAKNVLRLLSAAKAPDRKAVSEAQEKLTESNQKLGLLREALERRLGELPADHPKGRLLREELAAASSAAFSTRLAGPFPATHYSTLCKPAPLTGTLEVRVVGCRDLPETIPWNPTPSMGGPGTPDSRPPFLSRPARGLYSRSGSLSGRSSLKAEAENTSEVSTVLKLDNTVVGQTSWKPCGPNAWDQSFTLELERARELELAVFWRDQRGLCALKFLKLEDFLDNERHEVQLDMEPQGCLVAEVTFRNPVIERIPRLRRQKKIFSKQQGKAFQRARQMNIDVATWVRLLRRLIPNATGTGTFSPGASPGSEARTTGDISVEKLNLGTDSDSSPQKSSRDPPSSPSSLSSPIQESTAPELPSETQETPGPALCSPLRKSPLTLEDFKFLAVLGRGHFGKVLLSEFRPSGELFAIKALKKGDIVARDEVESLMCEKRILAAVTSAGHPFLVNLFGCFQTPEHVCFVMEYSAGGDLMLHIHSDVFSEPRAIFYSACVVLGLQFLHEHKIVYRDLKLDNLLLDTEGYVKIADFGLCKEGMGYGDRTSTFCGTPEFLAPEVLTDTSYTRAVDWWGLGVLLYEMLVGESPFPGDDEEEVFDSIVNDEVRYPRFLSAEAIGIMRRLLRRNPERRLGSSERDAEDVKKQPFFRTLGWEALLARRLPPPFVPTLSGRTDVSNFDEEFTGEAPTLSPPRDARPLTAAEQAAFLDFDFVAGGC
Chain of PDGFRB (PDGFR beta) (P09619 33-1106): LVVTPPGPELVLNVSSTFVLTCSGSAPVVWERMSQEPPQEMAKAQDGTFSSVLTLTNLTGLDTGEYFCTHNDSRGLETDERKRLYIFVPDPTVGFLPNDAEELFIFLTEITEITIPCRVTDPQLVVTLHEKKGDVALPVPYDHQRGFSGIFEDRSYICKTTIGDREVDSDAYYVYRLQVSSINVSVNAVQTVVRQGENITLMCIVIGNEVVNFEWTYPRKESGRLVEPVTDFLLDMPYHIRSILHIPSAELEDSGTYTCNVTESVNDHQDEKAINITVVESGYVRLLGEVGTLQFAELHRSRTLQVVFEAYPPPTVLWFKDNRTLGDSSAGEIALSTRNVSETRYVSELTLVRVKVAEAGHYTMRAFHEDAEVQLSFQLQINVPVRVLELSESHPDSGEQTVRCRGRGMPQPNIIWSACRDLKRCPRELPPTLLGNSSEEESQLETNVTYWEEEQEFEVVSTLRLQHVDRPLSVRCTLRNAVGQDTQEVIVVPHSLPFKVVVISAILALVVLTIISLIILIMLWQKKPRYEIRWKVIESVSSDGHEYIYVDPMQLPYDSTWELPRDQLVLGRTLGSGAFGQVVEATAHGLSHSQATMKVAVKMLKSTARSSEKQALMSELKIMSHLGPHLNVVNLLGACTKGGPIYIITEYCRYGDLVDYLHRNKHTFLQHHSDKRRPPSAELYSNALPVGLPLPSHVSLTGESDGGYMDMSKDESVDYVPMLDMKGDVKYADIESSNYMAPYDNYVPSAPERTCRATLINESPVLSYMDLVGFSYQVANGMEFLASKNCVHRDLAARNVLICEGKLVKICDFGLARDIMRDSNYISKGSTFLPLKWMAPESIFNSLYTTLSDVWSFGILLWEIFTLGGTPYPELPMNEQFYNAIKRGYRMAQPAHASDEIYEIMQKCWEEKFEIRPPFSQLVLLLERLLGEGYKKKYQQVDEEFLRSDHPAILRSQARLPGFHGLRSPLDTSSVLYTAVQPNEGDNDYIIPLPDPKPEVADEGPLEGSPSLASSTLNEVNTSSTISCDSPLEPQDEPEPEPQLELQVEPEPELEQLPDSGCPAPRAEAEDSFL
Chain of MAP2K1 (MEK1) (Q02750 whole entry): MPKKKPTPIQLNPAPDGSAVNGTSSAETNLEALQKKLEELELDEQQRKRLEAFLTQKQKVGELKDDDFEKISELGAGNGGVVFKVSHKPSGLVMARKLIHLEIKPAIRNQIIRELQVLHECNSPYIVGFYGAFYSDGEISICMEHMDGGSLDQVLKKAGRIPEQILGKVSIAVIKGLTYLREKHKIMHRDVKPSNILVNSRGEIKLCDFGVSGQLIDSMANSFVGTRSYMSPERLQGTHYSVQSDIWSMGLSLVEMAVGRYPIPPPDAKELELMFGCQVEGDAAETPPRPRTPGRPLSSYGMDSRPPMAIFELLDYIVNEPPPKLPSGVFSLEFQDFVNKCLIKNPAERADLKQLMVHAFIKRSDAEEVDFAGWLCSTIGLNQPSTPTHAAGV
Chain of CSNK1G2 (CK1 gamma 2) (P78368 whole entry): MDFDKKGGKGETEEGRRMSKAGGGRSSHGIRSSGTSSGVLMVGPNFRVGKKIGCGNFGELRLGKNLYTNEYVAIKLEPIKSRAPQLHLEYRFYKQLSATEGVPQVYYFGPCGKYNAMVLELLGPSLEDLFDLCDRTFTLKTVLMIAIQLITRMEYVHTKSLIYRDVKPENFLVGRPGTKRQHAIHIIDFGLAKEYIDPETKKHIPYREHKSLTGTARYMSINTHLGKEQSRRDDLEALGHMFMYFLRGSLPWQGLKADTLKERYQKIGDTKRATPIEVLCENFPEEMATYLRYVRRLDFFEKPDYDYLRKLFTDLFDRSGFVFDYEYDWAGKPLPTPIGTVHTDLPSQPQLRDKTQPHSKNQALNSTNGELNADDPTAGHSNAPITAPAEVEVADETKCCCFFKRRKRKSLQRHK
Chain of MAP3K8 (COT) (P41279 whole entry): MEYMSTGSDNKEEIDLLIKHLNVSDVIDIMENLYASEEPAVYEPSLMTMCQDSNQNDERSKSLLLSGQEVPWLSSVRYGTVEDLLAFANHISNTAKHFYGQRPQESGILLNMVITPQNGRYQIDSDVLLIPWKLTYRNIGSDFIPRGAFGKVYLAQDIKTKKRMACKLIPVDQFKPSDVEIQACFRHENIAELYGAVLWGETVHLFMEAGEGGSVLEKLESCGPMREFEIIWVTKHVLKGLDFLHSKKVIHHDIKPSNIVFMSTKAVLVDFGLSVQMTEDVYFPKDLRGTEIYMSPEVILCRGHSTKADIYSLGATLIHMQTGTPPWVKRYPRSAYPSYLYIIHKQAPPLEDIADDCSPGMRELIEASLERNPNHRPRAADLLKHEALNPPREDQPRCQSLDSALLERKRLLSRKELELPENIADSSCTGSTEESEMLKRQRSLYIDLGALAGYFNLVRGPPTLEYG
Chain of PAK4 (O96013 whole entry): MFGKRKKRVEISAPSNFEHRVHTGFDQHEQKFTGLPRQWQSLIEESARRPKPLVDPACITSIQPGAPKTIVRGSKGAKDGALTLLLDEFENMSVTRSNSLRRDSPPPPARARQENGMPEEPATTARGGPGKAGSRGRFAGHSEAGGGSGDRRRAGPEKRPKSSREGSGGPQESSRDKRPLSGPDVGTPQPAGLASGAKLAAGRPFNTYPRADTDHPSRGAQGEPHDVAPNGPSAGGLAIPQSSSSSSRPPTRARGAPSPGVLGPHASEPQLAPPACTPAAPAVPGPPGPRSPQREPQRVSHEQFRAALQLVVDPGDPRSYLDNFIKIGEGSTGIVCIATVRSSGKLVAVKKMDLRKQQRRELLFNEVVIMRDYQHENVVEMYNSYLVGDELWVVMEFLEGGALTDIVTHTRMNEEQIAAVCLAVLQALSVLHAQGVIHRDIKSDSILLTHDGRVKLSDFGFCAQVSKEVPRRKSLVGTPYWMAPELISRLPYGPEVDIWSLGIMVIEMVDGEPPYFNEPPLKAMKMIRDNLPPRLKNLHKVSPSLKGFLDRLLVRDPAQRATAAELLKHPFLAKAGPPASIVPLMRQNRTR

Row | inhibition at 1 µM (MAPK14 (p38 alpha)) | inhibition at 1 µM (GRK4) | inhibition at 1 µM (CSNK1G2 (CK1 gamma 2)) | inhibition at 1 µM (AURKB (Aurora B)) | inhibition at 1 µM (MAP3K8 (COT)) | inhibition at 1 µM (FRAP1 (mTOR)) | inhibition at 1 µM (MAP2K1 (MEK1)) | inhibition at 1 µM (PKN1 (PRK1)) | inhibition at 1 µM (PAK4) | inhibition at 1 µM (LRRK2 FL) | inhibition at 1 µM (LCK) | inhibition at 1 µM (PDGFRB (PDGFR beta)) | pEC50 (JNK activation) | inhibition at 1 µM (AURKA (Aurora A)) | Structure (SMILES) | pEC50 (pATF2 in HEK293 cells) | inhibition at 10 µM (primary mouse B-cells)
1 | 9% | -5% | 3% | 79% | -7% | -2% | 4% | 4% | -11% | 91% | 5% | -3% |  |  | C=CC(=O)Nc1cccc(-c2n[nH]c3ccccc23)c1 [GO32] | 5.55 | 
2 | 16% | -3% | -13% | 77% | -12% | -2% | 4% | 1% | -16% | 86% | 5% | -13% | 5.48 | 4% | C=CC(=O)Nc1cccc(-c2n[nH]c3cc(C)ccc23)c1 [GO80] | 5.28 | 60%
